According to patent US4302465A, “Therapeutically active, substituted piperidines and pyrrolidines therapeutic compositions thereof and methods of use thereof” (priority 1979, dated 1981):
Values joined by “and” are separate entries in the source; they are usually repeats but may differ in a detail not shown here. Equal values may be shown once.

Columns and labels:
[1] = in vivo; details: rat, iv
[2] = test system: arrhythmic heart-beats induced by ouabain; assay: Effect against arrhythmic heart-beats induced by ouabain in anaesthetized dogs; assay type: in vivo; details: for Duration of regularization / Number of regularized arrhythmias (percent) / Number of regularized arrhythmias: ouabain; for Number of regularized arrhythmias: count
[3] = test system: sciatic nerve; assay: Local anaesthetic effect in rats after perineuronal injection close to the sciatic nerve; assay type: in vivo; details: for Duration of anaesthesia, Motoric Blockage / Duration of anaesthesia, Sensory Blockage: 1.0% + adr. 5 μg/ml, 10 animals, perineuronal, sciatic nerve
[4] = test system: rabbits; details: rabbit, in vivo
[5] = test system: guinea pigs; assay: Local anaesthetic effect in guinea pigs after intracutaneous infiltration; assay type: in vivo; details: for Duration of Anaesthesia: 1.0% + adrenaline 5 μg/ml, 12 animals
[6] = in vivo; details: mouse

SMILES | TD50 [1] [mg/kg] | effect against arrhythmic heart-beats induced by ouabain, in words [2] | Duration of regularization ([2]; dose 1.0 mg/kg) [min] | Number of regularized arrhythmias (percent) ([2]; dose 1.0 mg/kg) [%] | Number of regularized arrhythmias ([2]; dose 1.0 mg/kg) | Duration of regularization ([2]; dose 2.0 mg/kg) [min] | Number of regularized arrhythmias (percent) ([2]; dose 2.0 mg/kg) | Number of regularized arrhythmias ([2]; dose 2.0 mg/kg) | Duration of anaesthesia, Motoric Blockage [3] [min] | Duration of anaesthesia, Sensory Blockage [3] [min] | local anaesthetic effect, in words ([3]; perineuronal injection close to the sciatic nerve) | tissue irritation, in words [4] | local anaesthetic effect, in words [5] | Duration of Anaesthesia [5] [min] | LD50 [6] [mg/kg] | LD50 ([6]; iv) [mg/kg]
Cc1cccc(C)c1NC(=O)C1CCCCN1CCO (racemic) [Substance S-1249, DL-N-(2-hydroxyethyl)pipecolinyl-2,6-dimethylanilide] | 103 ± 8 | effects equivalent to lidocaine and better than mepivacaine | 130 ± 40 | 65 | 13 | 280 ± 70 | 70% | 17 | 83 ± 6 | 82 ± 6 | equivalent local anaesthetic effect to lidocaine and mepivacaine | considerably less tissue irritation | local anaesthetic effect of the same order of magnitude as lidocaine and mepivacaine | 140 ± 8 | 57 | –
Cc1cccc(C)c1NC(=O)C1CCCC[N+]1(C)CCO (centres unmarked) [N-methyl-S-1249, N(quaternary-2-hydroxyethyl-N-methyl)pipecolinyl-2,6-dimethylanilide] | 125 | rhythm-regularizing effects | 180 ± 30 | 100 | 4 | 310 ± 50 | 100% | 4 | – | – | – | – | local anaesthetic effect | 128 ± 12 | – | 84
Cc1cccc(C)c1NC(=O)C1CCCCN1C (centres unmarked) [Mepivacaine, mepivacaine, reference compound] | 38 ± 3 | – | 110 ± 20 | 50 | 5 | 185 ± 50 | 50% and 60% | 6 | 89 ± 4 | 87 ± 4 | – | – | – | 152 ± 16 | 31 | 31
CCN(CC)CC(=O)Nc1c(C)cccc1C [Lidocaine, lidocaine, reference compound] | – | – | – | 60 | 12 | 220 ± 30 | 79% | 19 | 79 ± 5 | 77 ± 5 | – | – | – | 132 ± 7 | – | –
Cc1cccc(C)c1NC(=O)C1CCCCN1CCCO (centres unmarked) [Substance S-1265, N-(3-Hydroxypropyl)pipecolinyl-2,6-dimethylanilide] | 80 ± 4 | effects equivalent to lidocaine and mepivacaine | 120 ± 30 | 67 | 4 | 200 ± 40 | 83% | 5 | – | – | – | – | better local anaesthetic effect than lidocaine | 151 ± 6 | – | 40
Cc1cccc(C)c1NC(=O)[C@@H]1CCCN1CCO [Substance S-1258, L-N-(2-hydroxyethyl)prolyl-2,6-dimethylanilide] | 130 ± 10 | effective against arrhythmic heartbeats induced by ouabain | 95 ± 20 | 83 | 5 | 195 ± 40 | 67% | 4 | – | – | – | – | better local anaesthetic effect than lidocaine | 111 ± 8 | – | 110
